{
  "source": "ChEMBL document CHEMBL3044786",
  "about": "“Synthesis and nematocidal activity of ascaridole derivatives against Meloidogyne incognita and Aphelenchoides besseyi” (J Pestic Sci, 2007)",
  "key": {"Meloidogyne incognita [1]": {"tested_on": "Meloidogyne incognita", "assay": "Nematocidal activity against Meloidogyne incognita (root-knot nematode) assessed as mortality at 100 ug/ml after 24 hr", "format": "functional"}, "Aphelenchoides besseyi [2]": {"tested_on": "Aphelenchoides besseyi", "assay": "Nematocidal activity against Aphelenchoides besseyi assessed as mortality after 24 hr", "format": "functional"}, "Meloidogyne incognita [3]": {"tested_on": "Meloidogyne incognita", "assay": "Nematocidal activity against Meloidogyne incognita (root-knot nematode) assessed as mortality after 24 hr", "format": "functional"}, "Aphelenchoides besseyi [4]": {"tested_on": "Aphelenchoides besseyi", "assay": "Nematocidal activity against Aphelenchoides besseyi assessed as mortality at 200 ug/ml after 24 hr", "format": "functional"}, "[5]": {"assay": "Toxicity in Rattus norvegicus (rat)", "format": "organism-based", "details": "in vivo, read-out: LC50 (the source's name)"}},
  "data": [
    {"smiles": "CC1=C[C@H]2OO[C@@H]1C[C@@H]2C(C)C", "values": [
      {"measurement": "mortality at 100 µg/mL", "setting": "Meloidogyne incognita [1]", "result": 100, "unit": "%"},
      {"measurement": "LC50", "setting": "Aphelenchoides besseyi [2]", "result": 69, "unit": "µg/mL"},
      {"measurement": "LC50", "setting": "Meloidogyne incognita [3]", "result": 25, "unit": "µg/mL"}
    ]},
    {"smiles": "CC1=C[C@@H]2OO[C@H]1C[C@@H]2C(C)C", "values": [
      {"measurement": "mortality at 100 µg/mL", "setting": "Meloidogyne incognita [1]", "result": 100, "unit": "%"},
      {"measurement": "LC50", "setting": "Aphelenchoides besseyi [2]", "result": 110, "unit": "µg/mL"},
      {"measurement": "LC50", "setting": "Meloidogyne incognita [3]", "result": 51, "unit": "µg/mL"}
    ]},
    {"smiles": "CC(C)C12C=CC(C)(CC1)OO2", "note": "(stereo not drawn) [ASCARIDOLE]", "values": [
      {"measurement": "mortality at 100 µg/mL", "setting": "Meloidogyne incognita [1]", "result": 100, "unit": "%"},
      {"measurement": "LC50", "setting": "Aphelenchoides besseyi [2]", "result": 365, "unit": "µg/mL"},
      {"measurement": "mortality at 200 µg/mL", "setting": "Aphelenchoides besseyi [4]", "result": "< 50", "unit": "%"},
      {"measurement": "LC50", "setting": "Meloidogyne incognita [3]", "result": 52, "unit": "µg/mL"}
    ]},
    {"smiles": "CC(C)C12C=CC(CO)(CC1)OO2", "note": "(stereo not drawn)", "values": [
      {"measurement": "mortality at 100 µg/mL", "setting": "Meloidogyne incognita [1]", "result": 100, "unit": "%"},
      {"measurement": "LC50", "setting": "Aphelenchoides besseyi [2]", "result": 402, "unit": "µg/mL"},
      {"measurement": "mortality at 200 µg/mL", "setting": "Aphelenchoides besseyi [4]", "result": "< 50", "unit": "%"},
      {"measurement": "LC50", "setting": "Meloidogyne incognita [3]", "result": 55, "unit": "µg/mL"}
    ]},
    {"smiles": "C=C(C)[C@H]1C[C@@H]2OO[C@H]1C=C2C", "values": [
      {"measurement": "mortality at 100 µg/mL", "setting": "Meloidogyne incognita [1]", "result": 100, "unit": "%"},
      {"measurement": "LC50", "setting": "Aphelenchoides besseyi [2]", "result": 50, "unit": "µg/mL"},
      {"measurement": "LC50", "setting": "Meloidogyne incognita [3]", "result": 23, "unit": "µg/mL"}
    ]},
    {"smiles": "C=C(C)[C@H]1C[C@H]2OO[C@@H]1C(OC(C)=O)=C2C", "values": [
      {"measurement": "mortality at 100 µg/mL", "setting": "Meloidogyne incognita [1]", "result": 100, "unit": "%"},
      {"measurement": "LC50", "setting": "Aphelenchoides besseyi [2]", "result": 302, "unit": "µg/mL"},
      {"measurement": "mortality at 200 µg/mL", "setting": "Aphelenchoides besseyi [4]", "result": "< 50", "unit": "%"},
      {"measurement": "LC50", "setting": "Meloidogyne incognita [3]", "result": 50, "unit": "µg/mL"}
    ]},
    {"smiles": "CC(C)C12C=CC(C(=O)O)(CC1)OO2", "note": "(stereo not drawn)", "values": [
      {"measurement": "mortality at 100 µg/mL", "setting": "Meloidogyne incognita [1]", "result": 100, "unit": "%"},
      {"measurement": "LC50", "setting": "Aphelenchoides besseyi [2]", "result": 4, "unit": "µg/mL"},
      {"measurement": "mortality at 200 µg/mL", "setting": "Aphelenchoides besseyi [4]", "result": 100, "unit": "%"},
      {"measurement": "LC50", "setting": "Meloidogyne incognita [3]", "result": 2, "unit": "µg/mL"}
    ]},
    {"smiles": "COC(=O)C12C=CC(C(C)C)(CC1)OO2", "note": "(stereo not drawn)", "values": [
      {"measurement": "mortality at 100 µg/mL", "setting": "Meloidogyne incognita [1]", "result": 100, "unit": "%"},
      {"measurement": "LC50", "setting": "Aphelenchoides besseyi [2]", "result": 2, "unit": "µg/mL"},
      {"measurement": "mortality at 200 µg/mL", "setting": "Aphelenchoides besseyi [4]", "result": 100, "unit": "%"},
      {"measurement": "LC50", "setting": "Meloidogyne incognita [3]", "result": 2, "unit": "µg/mL"}
    ]},
    {"smiles": "C=C(C)[C@H]1C[C@@H]2OO[C@H]1C(OC(C)=O)=C2C", "values": [
      {"measurement": "mortality at 100 µg/mL", "setting": "Meloidogyne incognita [1]", "result": 100, "unit": "%"},
      {"measurement": "LC50", "setting": "Aphelenchoides besseyi [2]", "result": 306, "unit": "µg/mL"},
      {"measurement": "LC50", "setting": "Meloidogyne incognita [3]", "result": 51, "unit": "µg/mL"}
    ]},
    {"smiles": "C=C(C)[C@H]1C[C@H]2OO[C@@H]1C=C2C", "values": [
      {"measurement": "mortality at 100 µg/mL", "setting": "Meloidogyne incognita [1]", "result": 100, "unit": "%"},
      {"measurement": "LC50", "setting": "Aphelenchoides besseyi [2]", "result": 21, "unit": "µg/mL"},
      {"measurement": "LC50", "setting": "Meloidogyne incognita [3]", "result": 12, "unit": "µg/mL"}
    ]},
    {"smiles": "CNC(=O)O/N=C(\\SC)C(=O)N(C)C", "note": "[OXAMYL]", "values": [
      {"measurement": "LD50", "setting": "[5]", "result": 3.1, "unit": "mg/kg"},
      {"measurement": "LC50", "setting": "Aphelenchoides besseyi [2]", "result": 0.1, "unit": "µg/mL"},
      {"measurement": "LC50", "setting": "Meloidogyne incognita [3]", "result": 0.07, "unit": "µg/mL"}
    ]}
  ]
}
